Assay results reported in the supplement of paper PMC7661543.
± gives the standard deviation of the averaged measurements.

system: BT-20; experiment: relative cell number vs DMSO control (72 h) (% of DMSO); higher = less growth inhibition (more cells); settings: sgRNA knockout: sgNT, 1000 nM
Experimental: (§1)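 QMAP-Seq: a pool of 5 breast cancer cell lines (ZR-75-1, SKBR3, HCC-38, MDA-MB-231, BT-20), each carrying 12 doxycycline-inducible Cas9 sgRNA perturbations (11 knockouts plus non-targeting sgNT), was treated with compounds for 72 h at four 10-fold doses (10 nM-10 uM or 1 nM-1 uM range). Barcodes were amplified and sequenced, and cell number was interpolated from 293T spike-in standard curves. The result is expressed as % of the median of DMSO wells. Two biological replicates.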

| Compound | relative cell number |
| --- | --- |
| COc1nc(N)nc2c1ncn2[C@@H]1O[C@H](CO)[C@@H](O)[C@@H]1O [Nelarabine] | 94.9 ± 26 |
| COc1cc(-n2c(=S)[nH]c3ccccc3c2=O)c(Cl)cc1Cl [Mdivi1] | 83.6 ± 2.9 |
| CCOC(=O)c1ccc(N2NC(=O)C(=Cc3ccc([N+](=O)[O-])o3)C2=O)cc1 [PYR41] | 103 ± 17 |

same assay, conditions: sgRNA knockout: sgNT, 10000 nM

| Compound | relative cell number |
| --- | --- |
| COC(=O)[C@]12CCC(C)(C)C[C@H]1[C@H]1C(=O)C=C3[C@@]4(C)C=C(C#N)C(=O)C(C)(C)[C@@H]4CC[C@@]3(C)[C@]1(C)CC2 [BardoxoloneMethyl] | 4.97 ± 2.9 |
| Cc1sc2c(c1C)C(c1ccc(Cl)cc1)=N[C@@H](CC(=O)OC(C)(C)C)c1nnc(C)n1-2 [(+)-JQ1] | 93.5 ± 4 |
| CCOC(=O)CCNc1cc(N2CCc3ccccc3CC2)nc(-c2ccccn2)n1 [GSKJ4] | 52.7 ± 5.3 |
| O=C1NC(=O)/C(=C/c2ccc3nccc(-c4ccncc4)c3c2)S1 | 46.5 ± 18 |
| CC(C)n1c(/C=C/C(O)CC(O)CC(=O)O)c(-c2ccc(F)cc2)c2ccccc21 (stereo not given) [Fluvastatin] | 72.2 ± 16 |
| Cn1nnc2c(C(N)=O)ncn2c1=O [Temozolomide] | 132 ± 37 |
| CN(C)C(=O)c1ccc(S(=O)(=O)c2ccc(NC(=O)[C@@](C)(O)C(F)(F)F)c(Cl)c2)cc1 [AZD7545] | 95.7 ± 8.7 |
| CC(C)(C#N)c1ccc(N2C(=O)OCc3cnc4ccc(-c5cnc6ccccc6c5)cc4c32)cc1 | 50.8 ± 23 |
| CC(C)C[C@@H](C=O)NC(=O)[C@H](CC(C)C)NC(=O)[C@H](CC(C)C)NC(=O)OCc1ccccc1 [MG132] | 12 ± 0.91 |
| C[C@@H](Oc1cc(-c2cnn(C3CCNCC3)c2)cnc1N)c1c(Cl)ccc(F)c1Cl [Crizotinib] | 44.2 ± 4.7 |
| CC(C)(C)c1cnc(CSc2cnc(NC(=O)C3CCNCC3)s2)o1 [SNS032] | 34.4 ± 1.1 |
| Nc1ccn([C@@H]2O[C@H](CO)[C@@H](O)C2(F)F)c(=O)n1 [Gemcitabine] | 23.9 ± 15 |
| CCCS(=O)(=O)Nc1ccc(F)c(C(=O)c2c[nH]c3ncc(Cl)cc23)c1F [PLX4720] | 121 ± 32 |
| CC[C@H](Nc1ncnc2[nH]cnc12)c1nc2cccc(F)c2c(=O)n1-c1ccccc1 [CAL101] | 88.8 ± 26 |
| COc1nc(N)nc2c1ncn2[C@@H]1O[C@H](CO)[C@@H](O)[C@@H]1O [Nelarabine] | 98 ± 15 |
| COc1cc(-n2c(=S)[nH]c3ccccc3c2=O)c(Cl)cc1Cl [Mdivi1] | 84 ± 3.7 |
| CCOC(=O)c1ccc(N2NC(=O)C(=Cc3ccc([N+](=O)[O-])o3)C2=O)cc1 [PYR41] | 102.7 ± 0.59 |

system: ZR-75-1; experiment: as above; settings: sgRNA knockout: sgNT, 1 nM
Experimental: as §1

| Compound | relative cell number |
| --- | --- |
| CC(C)(C#N)c1cc(Cn2cncn2)cc(C(C)(C)C#N)c1 [Anastrozole] | 76.6 ± 1.4 |
| N#Cc1ccc(C(c2ccc(C#N)cc2)n2cncn2)cc1 [Letrozole] | 109 ± 14 |
| CN1CCN(c2ccc(C(=O)Nc3n[nH]c4ccc(Cc5cc(F)cc(F)c5)cc34)c(NC3CCOCC3)c2)CC1 [Entrectinib] | 73.5 ± 22 |

same assay, conditions: sgRNA knockout: sgNT, 10 nM

| Compound | relative cell number |
| --- | --- |
| CC(C)(C#N)c1cc(Cn2cncn2)cc(C(C)(C)C#N)c1 [Anastrozole] | 151 ± 25 |
| COC(=O)[C@]12CCC(C)(C)C[C@H]1[C@H]1C(=O)C=C3[C@@]4(C)C=C(C#N)C(=O)C(C)(C)[C@@H]4CC[C@@]3(C)[C@]1(C)CC2 [BardoxoloneMethyl] | 74.7 ± 11 |
| Cc1sc2c(c1C)C(c1ccc(Cl)cc1)=N[C@@H](CC(=O)OC(C)(C)C)c1nnc(C)n1-2 [(+)-JQ1] | 98.5 ± 22 |
| CCOC(=O)CCNc1cc(N2CCc3ccccc3CC2)nc(-c2ccccn2)n1 [GSKJ4] | 125 ± 56 |
| O=C1NC(=O)/C(=C/c2ccc3nccc(-c4ccncc4)c3c2)S1 | 78.3 ± 2.5 |
| N#Cc1ccc(C(c2ccc(C#N)cc2)n2cncn2)cc1 [Letrozole] | 93.6 ± 24 |
| CC(C)n1c(/C=C/C(O)CC(O)CC(=O)O)c(-c2ccc(F)cc2)c2ccccc21 (stereo not given) [Fluvastatin] | 78.2 ± 28 |
| Cn1nnc2c(C(N)=O)ncn2c1=O [Temozolomide] | 89.66 ± 0.62 |
| CN(C)C(=O)c1ccc(S(=O)(=O)c2ccc(NC(=O)[C@@](C)(O)C(F)(F)F)c(Cl)c2)cc1 [AZD7545] | 110 ± 7.3 |
| CC(C)(C#N)c1ccc(N2C(=O)OCc3cnc4ccc(-c5cnc6ccccc6c5)cc4c32)cc1 | 86.6 ± 16 |
| CC(C)C[C@@H](C=O)NC(=O)[C@H](CC(C)C)NC(=O)[C@H](CC(C)C)NC(=O)OCc1ccccc1 [MG132] | 80.8 ± 16 |
| C[C@@H](Oc1cc(-c2cnn(C3CCNCC3)c2)cnc1N)c1c(Cl)ccc(F)c1Cl [Crizotinib] | 75.6 ± 19 |
| CN1CCN(c2ccc(C(=O)Nc3n[nH]c4ccc(Cc5cc(F)cc(F)c5)cc34)c(NC3CCOCC3)c2)CC1 [Entrectinib] | 105 ± 44 |
| CC(C)(C)c1cnc(CSc2cnc(NC(=O)C3CCNCC3)s2)o1 [SNS032] | 99.8 ± 5 |
| Nc1ccn([C@@H]2O[C@H](CO)[C@@H](O)C2(F)F)c(=O)n1 [Gemcitabine] | 36.6 ± 15 |
| CCCS(=O)(=O)Nc1ccc(F)c(C(=O)c2c[nH]c3ncc(Cl)cc23)c1F [PLX4720] | 138 ± 42 |
| CC[C@H](Nc1ncnc2[nH]cnc12)c1nc2cccc(F)c2c(=O)n1-c1ccccc1 [CAL101] | 76.6 ± 14 |
| COc1nc(N)nc2c1ncn2[C@@H]1O[C@H](CO)[C@@H](O)[C@@H]1O [Nelarabine] | 85.5 ± 33 |
| COc1cc(-n2c(=S)[nH]c3ccccc3c2=O)c(Cl)cc1Cl [Mdivi1] | 135 ± 44 |
| CCOC(=O)c1ccc(N2NC(=O)C(=Cc3ccc([N+](=O)[O-])o3)C2=O)cc1 [PYR41] | 125 ± 29 |

same assay, conditions: sgRNA knockout: sgNT, 100 nM

| Compound | relative cell number |
| --- | --- |
| CC(C)(C#N)c1cc(Cn2cncn2)cc(C(C)(C)C#N)c1 [Anastrozole] | 100 ± 3.4 |
| COC(=O)[C@]12CCC(C)(C)C[C@H]1[C@H]1C(=O)C=C3[C@@]4(C)C=C(C#N)C(=O)C(C)(C)[C@@H]4CC[C@@]3(C)[C@]1(C)CC2 [BardoxoloneMethyl] | 49.3 ± 14 |
| Cc1sc2c(c1C)C(c1ccc(Cl)cc1)=N[C@@H](CC(=O)OC(C)(C)C)c1nnc(C)n1-2 [(+)-JQ1] | 122 ± 50 |
| CCOC(=O)CCNc1cc(N2CCc3ccccc3CC2)nc(-c2ccccn2)n1 [GSKJ4] | 113 ± 3.1 |
| O=C1NC(=O)/C(=C/c2ccc3nccc(-c4ccncc4)c3c2)S1 | 128 ± 6.6 |
| N#Cc1ccc(C(c2ccc(C#N)cc2)n2cncn2)cc1 [Letrozole] | 106 ± 30 |
| CC(C)n1c(/C=C/C(O)CC(O)CC(=O)O)c(-c2ccc(F)cc2)c2ccccc21 (stereo not given) [Fluvastatin] | 83.5 ± 20 |
